SMILES strings stand for the structures.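 These data come from cells grown in 96-well plates and exposed to compound for 48 hours at five concentrations. GI50: concentration for 50% inhibition of growth. TGI: concentration producing complete growth inhibition.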

Among the test systems are SW-620 colon; MDA-MB-435; MOLT-4 leukemia; MALME-3M melanoma; OVCAR-3 ovarian; EKVX NSCLC; RPMI-8226 leukemia; SF-268 CNS; SNB-19 CNS; SK-MEL-2 melanoma.
Common to all, as to test: NCI tumour cell line growth inhibition, 48 h

`CN(C)c1nc(=NCc2ccco2)ss1`: the TGI was 61.9 µM with SW-620 colon; 42.3 µM in the assay with MDA-MB-435; 44.8 µM in the assay on MOLT-4 leukemia; 54 µM with MALME-3M melanoma; 63 µM in the assay on OVCAR-3 ovarian; 64.3 µM in the assay with EKVX NSCLC. For the same compound, the TGI is 36.3 µM in the assay with RPMI-8226 leukemia, 51.8 µM with SF-268 CNS, over 80.4 µM in the assay with SNB-19 CNS and over 64.8 µM in the assay with SK-MEL-2 melanoma.

As for `Cn1cccc1-c1cc(-c2ccccc2)[nH]c(=O)c1C#N`, the GI50 in the assay on SW-620 colon is over 100 µM; in the assay with MDA-MB-435, over 100 µM; with MOLT-4 leukemia, 18.9 µM; in the assay with MALME-3M melanoma it was over 100 µM; in the assay on OVCAR-3 ovarian, over 100 µM; in the assay with EKVX NSCLC, 37.3 µM. Besides, the GI50 in the assay on RPMI-8226 leukemia, in the assay with SF-268 CNS, in the assay with SNB-19 CNS and in the assay on SK-MEL-2 melanoma was over 100 µM in each case. The TGI in the assay with SW-620 colon was over 100 µM; in the assay on MDA-MB-435 it was over 100 µM; with MOLT-4 leukemia, 45.4 µM; in the assay on MALME-3M melanoma, over 100 µM; in the assay with OVCAR-3 ovarian, over 100 µM; in the assay on EKVX NSCLC, over 100 µM. In addition, the TGI with RPMI-8226 leukemia, in the assay on SF-268 CNS, with SNB-19 CNS and with SK-MEL-2 melanoma was over 100 µM each time.

In the case of `Cc1ncc(C(=O)Nc2ccc(CN3CCN(C)CC3)c(C(F)(F)F)c2)cc1C#Cc1ccc(N)nc1`, the GI50 is 0.244 µM in the assay with SW-620 colon; 0.155 µM in the assay with MDA-MB-435; 0.155 µM in the assay on MOLT-4 leukemia; 0.0868 µM in the assay on MALME-3M melanoma; 0.556 µM with OVCAR-3 ovarian; 0.504 µM in the assay on EKVX NSCLC. Further, the GI50 is 0.237 µM in the assay with RPMI-8226 leukemia, 0.258 µM with SF-268 CNS, 1.22 µM in the assay on SNB-19 CNS and 0.212 µM in the assay on SK-MEL-2 melanoma. The TGI in the assay with SW-620 colon worked out at 1.36 µM; in the assay with MDA-MB-435 it was 0.789 µM; in the assay with MOLT-4 leukemia, 7.52 µM; with MALME-3M melanoma it was 0.379 µM; in the assay with OVCAR-3 ovarian, 4.16 µM; in the assay with EKVX NSCLC, 3.85 µM. Also, the TGI is 1.58 µM in the assay with RPMI-8226 leukemia, 1.43 µM in the assay on SF-268 CNS, 5.06 µM in the assay on SNB-19 CNS and 0.816 µM in the assay with SK-MEL-2 melanoma.

Regarding `C[Si](C)(c1ccc(C(=O)O)cc1)c1ccc(C(=O)O)cc1`, the TGI with SW-620 colon, in the assay with MDA-MB-435, in the assay on MOLT-4 leukemia, with MALME-3M melanoma, in the assay on OVCAR-3 ovarian and in the assay on EKVX NSCLC was over 100 µM throughout. Moreover, the TGI with RPMI-8226 leukemia, in the assay with SF-268 CNS, in the assay with SNB-19 CNS and with SK-MEL-2 melanoma was over 100 µM each time.

As for `CN1CCN(CCOc2ccc(-c3cnc4c(-c5cccc(F)c5)cnn4c3)cc2)CC1`, the GI50 was 1.81 µM in the assay on SW-620 colon; 1.71 µM in the assay on MDA-MB-435; 2.15 µM in the assay on MOLT-4 leukemia; 1.66 µM in the assay on MALME-3M melanoma; 1.87 µM with OVCAR-3 ovarian; 1.72 µM in the assay on EKVX NSCLC. For the same compound, the GI50 is 1.85 µM in the assay on RPMI-8226 leukemia, 1.99 µM with SF-268 CNS, 1.72 µM in the assay with SNB-19 CNS and 1.98 µM in the assay with SK-MEL-2 melanoma. Moreover, the TGI in the assay on SW-620 colon was 3.4 µM; in the assay on MDA-MB-435, 3.16 µM; in the assay on MOLT-4 leukemia, 4.82 µM; in the assay with MALME-3M melanoma, 3.23 µM; with OVCAR-3 ovarian, 4.03 µM; with EKVX NSCLC, 3.45 µM. Besides, the TGI worked out at 5.25 µM in the assay with RPMI-8226 leukemia, 4.79 µM in the assay on SF-268 CNS, 3.8 µM in the assay with SNB-19 CNS and 4.27 µM in the assay on SK-MEL-2 melanoma.

Turning to `CCOc1ccc2c(c1)C(=O)c1c-2n(CCCBr)c(=O)c2cc([N+](=O)[O-])ccc12`, the GI50 with SW-620 colon was 4.63 µM; in the assay with MDA-MB-435, 30.6 µM; in the assay with MOLT-4 leukemia, 4.18 µM; in the assay with MALME-3M melanoma, 40.7 µM; in the assay on OVCAR-3 ovarian it was 23.2 µM; in the assay on EKVX NSCLC, 86.1 µM. The GI50 is 30.7 µM in the assay on RPMI-8226 leukemia, 5.1 µM in the assay with SF-268 CNS, 4.75 µM with SNB-19 CNS and over 100 µM with SK-MEL-2 melanoma. For the same compound, the TGI with SW-620 colon, in the assay with MDA-MB-435, in the assay with MOLT-4 leukemia, in the assay with MALME-3M melanoma, with OVCAR-3 ovarian and in the assay with EKVX NSCLC was over 100 µM each time. For the same compound, the TGI with RPMI-8226 leukemia, in the assay on SF-268 CNS, with SNB-19 CNS and in the assay with SK-MEL-2 melanoma was over 100 µM throughout.

As for `O=C(O)/C=C\C(=O)Nc1ccccn1`, the TGI in the assay with SW-620 colon, with MDA-MB-435, in the assay on MOLT-4 leukemia, in the assay on MALME-3M melanoma, in the assay with OVCAR-3 ovarian and in the assay on EKVX NSCLC was over 100 µM throughout. The TGI in the assay with RPMI-8226 leukemia, with SF-268 CNS, in the assay with SNB-19 CNS and in the assay on SK-MEL-2 melanoma was over 100 µM throughout.

(Values after PubChem BioAssay (NCI).)
